pKi: −log10 of the molar value.
target: 5-HT2A (Homo sapiens (Human), UniProt P28223); assay: Radioligand binding assay, [^3H]5-HT competition, 5-HT2A; conditions: [^3H]5-HT radioligand, membranes of HEK293 cells expressing recombinant 5-HT2A; Ki from IC50 by Cheng-Prusoff; read-out: 5-HT2A serotonin binding Ki value
Sequence (P28223 whole entry): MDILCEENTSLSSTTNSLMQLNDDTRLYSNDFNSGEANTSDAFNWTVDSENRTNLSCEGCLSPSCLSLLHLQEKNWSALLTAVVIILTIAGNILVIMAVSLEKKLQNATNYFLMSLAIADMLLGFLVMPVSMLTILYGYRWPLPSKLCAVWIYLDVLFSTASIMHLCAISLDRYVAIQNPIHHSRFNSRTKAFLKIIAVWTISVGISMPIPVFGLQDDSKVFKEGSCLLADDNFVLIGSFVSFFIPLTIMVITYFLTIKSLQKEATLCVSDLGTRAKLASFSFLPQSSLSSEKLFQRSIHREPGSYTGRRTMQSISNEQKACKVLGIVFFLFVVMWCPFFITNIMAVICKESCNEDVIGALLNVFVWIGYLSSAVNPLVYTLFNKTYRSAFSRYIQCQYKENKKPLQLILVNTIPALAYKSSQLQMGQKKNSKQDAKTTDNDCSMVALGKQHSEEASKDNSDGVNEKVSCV

Row | SMILES | pKi
1 | Cc1ncnc(C)c1-c1cc(NC(=O)c2cc(C(C)C)n[nH]2)ccc1OCCN1CCCC1 [Compound 206, N-(3-(4,6-dimethylpyrimidin-5-yl)-4-(2-(pyrrolidin-1-yl)ethoxy)phenyl)-3-isopropyl-1H-pyrazole-5-carboxamide] | 8.19
2 | Cc1ncnc(C)c1-c1cc(NC(=O)Cc2ccc(F)cc2)ccc1OCCN1CCCC1 [Compound 254, N-(3-(4,6-dimethylpyrimidin-5-yl)-4-(2-(pyrrolidin-1-yl)ethoxy)phenyl)-2-(4-fluorophenyl)acetamide] | 8.89
3 | Cc1ncnc(C)c1-c1cc(NC(=O)C2(F)CC2)ccc1OCCN1C[C@@H]2C[C@H]1CO2 [Compound 382, N-(4-(2-((1S,4S)-2-oxa-5-azabicyclo[2.2.1]heptan-5-yl)ethoxy)-3-(4,6-dimethylpyrimidin-5-yl)phenyl)-1-fluorocyclopropane-1-carboxamide] | 8.06
4 | Cc1ncnc(C)c1-c1cc(NC(=O)C2CC2)ccc1OCCN1CCN(C=O)CC1 [Compound 341, N-[3-(4,6-dimethylpyrimidin-5-yl)-4-[2-(4-formylpiperazin-1-yl)ethoxy]phenyl]cyclopropanecarboxamide] | 8.01
5 | Cc1ncnc(C)c1-c1cc(NC(=O)CCF)ccc1OCCN1CCCC1 [Compound 281, N-[3-(4,6-dimethylpyrimidin-5-yl)-4-(2-pyrrolidin-1-ylethoxy)phenyl]-3-fluoro-propanamide] | 7.51
6 | Cc1ncnc(C)c1-c1cc(NC(=O)CCCF)ccc1OCCN1CCCC1 [Compound 282, N-[3-(4,6-dimethylpyrimidin-5-yl)-4-(2-pyrrolidin-1-ylethoxy)phenyl]-4-fluoro-butanamide] | 8.05
7 | Cc1ncnc(C)c1-c1cc(NC(=O)C2CC2)ccc1OCCN1CCN2C(=O)OCC2C1 (centres unmarked) [Compound 343, N-[3-(4,6-dimethylpyrimidin-5-yl)-4-[2-(3-oxo-5,6,8,8a-tetrahydro-1H-oxazolo[3,4-a]pyrazin-7-yl)ethoxy]phenyl]cyclopropanecarboxamide] | 7.32
8 | Cc1ncnc(C)c1-c1cc(NC(=O)C2CC(F)(F)C2)ccc1OCCN1CCCC1 [Compound 296, N-(3-(4,6-dimethylpyrimidin-5-yl)-4-(2-(pyrrolidin-1-yl)ethoxy)phenyl)-3,3-difluorocyclobutane-1-carboxamide] | 8.35
9 | Cc1ncnc(C)c1-c1cc(NC(=O)CC2CCCO2)ccc1OCCN1CCCC1 (centres unmarked) [Compound 229, N-(3-(4,6-dimethylpyrimidin-5-yl)-4-(2-(pyrrolidin-1-yl)ethoxy)phenyl)-2-(tetrahydrofuran-2-yl)acetamide] | 6.95
10 | Cc1ncnc(C)c1-c1cc(NC(=O)[C@@H]2C[C@@H]2F)ccc1OCCN1CCCC1 [Compound 213, (1S,2S)—N-(3-(4,6-dimethylpyrimidin-5-yl)-4-(2-(pyrrolidin-1-yl)ethoxy)phenyl)-2-fluorocyclopropane-1-carboxamide] | 8.34
11 | Cc1ncnc(C)c1-c1cc(NC(=O)COC2CC2)ccc1OCCN1CCCC1 [Compound 241, 2-(cyclopropoxy)-N-[3-(4,6-dimethylpyrimidin-5-yl)-4-(2-pyrrolidin-1-ylethoxy)phenyl]acetamide] | 7.56
12 | Cc1ncnc(C)c1-c1cc(NC(=O)c2ccnn2C)ccc1OC1CNC1 [Compound 399, N-(4-(azetidin-3-yloxy)-3-(4,6-dimethylpyrimidin-5-yl)phenyl)-1-methyl-1H-pyrazole-5-carboxamide] | 7.89
13 | COc1cccc(CC(=O)Nc2ccc(OCCN3CCCC3)c(-c3c(C)ncnc3C)c2)c1 [Compound 274, N-(3-(4,6-dimethylpyrimidin-5-yl)-4-(2-(pyrrolidin-1-yl)ethoxy)phenyl)-2-(3-methoxyphenyl)acetamide] | 8.41
14 | Cc1ncnc(C)c1-c1cc(NC(=O)Cc2ccon2)ccc1OCCN1CCCC1 [Compound 262, N-(3-(4,6-dimethylpyrimidin-5-yl)-4-(2-(pyrrolidin-1-yl)ethoxy)phenyl)-2-(isoxazol-3-yl)acetamide] | 7.45

— patent US20250270172A1, “Pyrimidine Derivatives As Modulators of the 5-HT2A Serotonin Receptor Useful For The Treatment of Disorders Related Thereto” (Arena Pharmaceuticals, Inc., priority 2020, published 2025)
